Patent US11753363B2, “13-oxidized ingenol derivative and use thereof” (Tianjin Pharmaceutical Da Ren Tang Group Corp., Ltd. …, priority 2017, dated 2023)
In brackets after ≈: the same amount, converted by molar mass.

Tests used:
[1] = system: A549 (human lung cancer cells); test: Inhibition of proliferation of tumor cell lines (MTT), A549; type: cell-based; conditions: Homo sapiens, A549, 72 h, read-out: IC50 value of compound for inhibition of proliferation of tumor cell lines, A549
Summary of the method: (§1)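 Cells in RPMI 1640 with 10% calf serum; adherent lines seeded at about 1×10^5/mL and attached 24 h, K562 at 2×10^5/mL. Compounds added in quadruplicate, 72 h at 37 °C, 5% CO2; MTT 4 h, DMSO-dissolved formazan read at 570 nm. IC50 from log-concentration versus inhibition-rate regression.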

[2] = system: BGC-823 (human gastric cancer cells); test: Inhibition of proliferation of tumor cell lines (MTT), BGC-823; type: cell-based; conditions: Homo sapiens, BGC-823, 72 h, read-out: IC50 value of compound for inhibition of proliferation of tumor cell lines, BGC-823
Summary of the method: as §1

[3] = system: LOVO (human colon cancer cells); test: Inhibition of proliferation of tumor cell lines (MTT), LOVO; type: cell-based; conditions: Homo sapiens, 72 h, read-out: IC50 value of compound for inhibition of proliferation of tumor cell lines, LOVO
Summary of the method: as §1

[4] = system: K562 (human leukemia cells); test: Inhibition of proliferation of tumor cell lines (MTT), K562; type: cell-based; conditions: Homo sapiens, K562, 72 h, read-out: IC50 value of compound for inhibition of proliferation of tumor cell lines, K562
Summary of the method: as §1

[5] = system: SMMC-7721 (human liver cancer cells); test: Inhibition of proliferation of tumor cell lines (MTT), SMMC-7721; type: cell-based; conditions: Homo sapiens, SMMC-7721, 72 h, read-out: IC50 value of compound for inhibition of proliferation of tumor cell lines, SMMC-7721
Summary of the method: as §1

[6] = system: MCF-7 (human breast cancer cells); test: Inhibition of proliferation of tumor cell lines (MTT), MCF-7; type: cell-based; conditions: Homo sapiens, MCF7, MCF-7, 72 h, read-out: IC50 value of compound for inhibition of proliferation of tumor cell lines, MCF-7
Summary of the method: as §1

[7] = system: HeLa (human cervical cancer cells); test: Inhibition of proliferation of tumor cell lines (MTT), HeLa; type: cell-based; conditions: Homo sapiens, 72 h, read-out: IC50 value of compound for inhibition of proliferation of tumor cell lines, HeLA
Summary of the method: as §1

[8] = system: mouse B16-F10 melanoma cells; test: Inhibition of proliferation of tumor cell lines (MTT), B16-F10; type: cell-based; conditions: Mus musculus, B16-F10, 72 h, read-out: IC50 value of compound for inhibition of proliferation of tumor cell lines, B16-F10
Summary of the method: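 Mouse B16-F10 melanoma cells, 1×10^5/mL in RPMI 1640 with 10% calf serum, attached 24 h, then exposed to graded compound concentrations in quadruplicate for 72 h at 37 °C, 5% CO2. MTT added for 4 h, read at 570 nm; IC50 by regression of inhibition rate on log concentration.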

[9] = system: neutrophilic granulocytes; test: Neutrophil oxidative burst (luminol chemiluminescence); type: cell-based; conditions: Neutrophil, rat neutrophils, (Csample−Ccontrol)/Ccontrol×100%, read-out: Efficiency of compounds in stimulating neutrophil oxidative burst
Summary of the method: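 Rat neutrophils isolated from abdominal aorta blood, resuspended in Hanks at 1×10^5 cells/well with 1 mM luminol stock added. Oxidative burst read by chemiluminescence after sample addition; efficiency (%) = (Csample−Ccontrol)/Ccontrol×100%.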

[10] = system: release of IL-8 by human keratinocytes (HaCaT); test: Release of IL-8 by human keratinocytes (HaCaT), IL-8 Elisa; type: cell-based; conditions: Homo sapiens, HaCaT, 24 h, (Csample−Ccontrol)/Ccontrol×100%, read-out: Efficiency of compound in stimulating the release of IL-8 by HaCaT cells
Summary of the method: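 HaCaT keratinocytes in MEM + 10% FBS, seeded 1×10^4 cells/well for 18-24 h, then switched to 1% FBS medium for 3-6 h. Exposed to a range of compound concentrations for 24 h at 37 °C, 5% CO2. Supernatant IL-8 measured by ELISA; efficiency (%) = (Csample − Ccontrol)/Ccontrol × 100%.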

[11] = system: B16-F0 mouse melanoma; test: Antitumor activity in B16-F0 mouse melanoma model; type: in vivo; conditions: female C57BL/6J mice, intradermal B16 tumor, skin administration once per day for 3 days, 20 μL/mouse, tumor weight on day 19
Description: This Example investigated the antitumor activity of compounds in B16-F0 mouse melanoma model.
In vitro passage of B16-F0 tumor source was inoculated subcutaneously into female C57BL/6J mice, and passage was carried out after tumor formation. After passage, the subcutaneous tumor tissue of the tumor-bearing mice was taken and ground with 3 times amount of physiological saline to form a tumor cell suspension, and 0.2 mL/mouse of which was inoculated subcutaneously into the axilla of forelimb of mice, which were used as the tumor-source mice. Female C57BL/6J mice were taken and their hair in an area of 4 cm^2 on the neck and back was shaven. After anesthesia with diethyl ether, B16 tumor source was inoculated intradermally at 0.05 mL/mouse. After 3 days of inoculation, the skin was continuously administered for 3 days, once per day, 20 μL/mouse each time, and in the test, a solvent group as a negative control group was included. On the 19th day of the experiment, the experiment was terminated. After the mice were euthanized, the intradermally transplanted tumors were completely separated and excised, and the tumor was weighed to calculate the tumor inhibition rate. Calculation formula of tumor inhibition rate: tumor inhibition rate (%)=(Wmodel group−Wadministration group)/Wmodel group×100%
The tumor growths of the experimental group and the solvent control group were compared to evaluate the antitumor activity of each compound, and the compound with P<0.05 was considered to be effective.

Compound | IC50 [1] [µg/mL] | IC50 [2] [µg/mL] | IC50 [3] [µg/mL] | IC50 [4] [µg/mL] | IC50 [5] [µg/mL] | IC50 [6] [µg/mL] | IC50 [7] [µg/mL] | IC50 [8] [µg/mL] | activation at 0.1 µg/mL ([9]; 0.1 μg/mL) [%] | activation at 0.1 µg/mL ([10]; 0.1 μg/mL) [%] | Tumor-inhibition rate [11] [%] | activation at 3 µg/mL ([9]; 3 μg/mL) [%] | activation at 1 µg/mL ([10]; 1 μg/mL) [%]
CCCCCCCCCCCC(=O)O[C@@]12C[C@@H](C)[C@]34C=C(C)[C@H](OC(=O)c5c(CC)noc5CC)[C@@]3(O)[C@H](O)C(CO)=C[C@H](C4=O)[C@@H]1C2(C)C [Compound 22, 3-O-(3,5-diethylisoxazolyl-4-formyl)-13-O-dodecanoyl-ingenol] | 18.3 (≈ 26.2 µM) | 11.3 (≈ 16.2 µM) | 11 (≈ 15.8 µM) | 1.14 (≈ 1.63 µM) | 20.1 (≈ 28.8 µM) | 10.9 (≈ 15.6 µM) | 9.59 (≈ 13.7 µM) | 2.96 (≈ 4.24 µM) | 124 | 144 | 39.5 |  | 
CCCCCCCCCCCC(=O)O[C@@]12C[C@@H](C)[C@]34C=C(C)[C@H](O)[C@@]3(O)[C@H](O)C(COC(C)=O)=C[C@H](C4=O)[C@@H]1C2(C)C [Compound 12, 20-O-acetyl-13-O-dodecanoyl-ingenol] | 16 (≈ 27.2 µM) | 10.3 (≈ 17.5 µM) | 6.71 (≈ 11.4 µM) | 0.06 (≈ 0.102 µM) | 12.7 (≈ 21.6 µM) | 12.7 (≈ 21.6 µM) | 32.3 (≈ 54.9 µM) | 14 (≈ 23.8 µM) |  |  | 40.7 | 88.3 | 37
